We go through 15 molecules from US11155560B2, “Substituted pyrazolo[1,5-a]pyrimidines for modulating CDK9 activity” (Kronos Bio, Inc., priority 2018, dated 2021).

Molecules are shown by their SMILES.

Chain of CDK9/cyclin T1 (P50750 whole entry): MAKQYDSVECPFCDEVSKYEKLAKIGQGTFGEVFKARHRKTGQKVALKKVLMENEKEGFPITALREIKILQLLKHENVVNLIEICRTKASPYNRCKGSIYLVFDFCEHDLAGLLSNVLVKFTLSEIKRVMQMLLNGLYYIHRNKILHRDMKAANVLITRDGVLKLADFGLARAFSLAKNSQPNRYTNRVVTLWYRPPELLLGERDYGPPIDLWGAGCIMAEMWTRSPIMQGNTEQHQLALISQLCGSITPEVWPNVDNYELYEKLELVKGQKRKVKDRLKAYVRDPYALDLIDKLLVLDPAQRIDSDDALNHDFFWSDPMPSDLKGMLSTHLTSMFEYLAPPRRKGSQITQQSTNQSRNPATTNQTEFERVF
Chain of CDK9/cyclin T1 (O60563 whole entry partner): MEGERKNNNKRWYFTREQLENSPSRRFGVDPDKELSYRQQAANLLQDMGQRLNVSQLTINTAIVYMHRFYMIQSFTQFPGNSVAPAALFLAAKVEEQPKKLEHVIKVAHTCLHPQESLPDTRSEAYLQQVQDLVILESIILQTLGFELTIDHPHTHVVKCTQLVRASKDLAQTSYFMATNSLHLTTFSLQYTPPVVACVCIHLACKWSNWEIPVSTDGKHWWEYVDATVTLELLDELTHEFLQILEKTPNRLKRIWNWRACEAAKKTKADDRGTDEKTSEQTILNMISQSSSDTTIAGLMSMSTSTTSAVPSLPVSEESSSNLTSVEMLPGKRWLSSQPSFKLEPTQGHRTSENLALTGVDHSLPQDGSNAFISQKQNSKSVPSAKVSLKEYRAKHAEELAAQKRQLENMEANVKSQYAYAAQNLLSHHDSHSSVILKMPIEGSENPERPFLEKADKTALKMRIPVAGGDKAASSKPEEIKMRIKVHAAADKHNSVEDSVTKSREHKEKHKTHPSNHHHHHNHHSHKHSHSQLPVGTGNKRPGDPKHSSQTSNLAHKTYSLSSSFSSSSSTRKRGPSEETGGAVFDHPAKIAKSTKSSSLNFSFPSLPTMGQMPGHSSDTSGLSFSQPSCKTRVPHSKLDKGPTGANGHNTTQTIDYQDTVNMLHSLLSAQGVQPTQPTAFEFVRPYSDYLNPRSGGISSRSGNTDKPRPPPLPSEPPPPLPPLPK

The first assay concerns the target CDK9/cyclin T1 (Homo sapiens, UniProt P50750). As to the kind of experiment: CDK9/cyclin T1 inhibition, radiometric assay. The class given is biochemical. The settings on record: radiometric assay, reaction time 60 minutes, 10 μM ATP, 10-dose IC50; compounds 1-34 and control Staurosporine; read-out: CDK9/cyclin T1 Potency Grade. The protocol: Exemplary compounds of the invention (1-34) were tested for inhibition of CDK9/cyclin T1. […] Reactions were carried out at 10 μM ATP. Data was normalized to positive and negative controls and curve fits were executed with GraphPad software and were performed where the enzyme activities at the highest concentration of compounds were less than 65%.
As for `N[C@@H]1CC[C@@H](Nc2cc(C3CC3)nc3ccnn23)C1` [Compound 32, [(1R,3R)-3-[(5-cycloproylpyrazolo[1,5-a]pyrimidin-7-yl)amino]cyclopentyl]ammonium; 2,2,2-trifluoroacetate], the IC50 was in the range of 1 to 500 nM.

The assay is the same for the next values; noted with them: read-out: CDK9/cyclin T1 Potency Grade.
Consider `Cc1cc(N[C@@H]2CC[C@H](N)C2)n2nccc2n1` [Compound 10, [(1S,3R)-3-[(5-methylpyrazolo[1,5-a]pyrimidin-4-ium-7-yl)amino]cyclopentyl]ammonium dichloride], for which the IC50 is above 1000 nM.
On the same count and under the same terms, the figure for `Cc1cc(N[C@H]2C[C@H](N)C2)n2nccc2n1` [Compound 11, [3-[(5-methylpyrazolo[1,5-a]pyrimidin-4-ium-7-yl)amino]cyclobutyl]ammonium dichloride] is 501 to 1000 nM.
As to `Cc1cc(N[C@H]2CC[C@@H](N)C2)n2nccc2n1` [Compound 12, [(1R,3S)-3-[(5-methylpyrazolo[1,5-a]pyrimidin-4-ium-7-yl)amino]cyclopentyl]ammonium dichloride], the IC50 fell in the range of 501 to 1000 nM.
The same measure, in the same setting: as for `N[C@H]1CC[C@@H](Nc2cc(C3CCCC3)nc3ccnn23)C1` [Compound 15, (1 S,3R)—N3-(5-cyclopentylpyrazolo[1,5-a]pyrimidin-7-yl)cyclopentane-1,3-diamine], the figure is 1 to 500 nM; as for `CCC(C)c1cc(N[C@H]2C[C@H](N)C2)n2nccc2n1` (stereo partly drawn) [Compound 19, N1-(5-sec-butylpyrazolo[1,5-a]pyrimidin-7-yl)cyclobutane-1,3-diamine], 1 to 500 nM; as for `N[C@H]1C[C@H](Nc2cc(C3CCCC3)nc3ccnn23)C1` [Compound 20, N1-(5-cyclopentylpyrazolo[1,5-a]pyrimidin-7-yl)cyclobutane-1,3-diamine], 1 to 500 nM.
Turning to `N[C@@H]1CC[C@H](Nc2cc(C3CCCC3)nc3ccnn23)C1` [Compound 23, (1R,3S)—N3-(5-cyclopentylpyrazolo[1,5-a]pyrimidin-7-yl)cyclopentane-1,3-diamine], the IC50 was in the range of 1 to 500 nM.
On the same count and under the same terms, the figure for `Cc1cc(N[C@H]2CC[C@H](N)C2)n2nccc2n1` [Compound 24, (1S,3S)—N3-(5-methylpyrazolo[1,5-a]pyrimidin-7-yl)cyclopentane-1,3-diamine] is 501 to 1000 nM; for `CCc1cc(N[C@@H]2CC[C@@H](N)C2)n2nccc2n1` [Compound 25, (1R,3R)—N3-(5-ethylpyrazolo[1,5-a]pyrimidin-7-yl)cyclopentane-1,3-diamine] it is 501 to 1000 nM.
The same measure, in the same setting: as for `CCc1cc(N[C@H]2CC[C@H](N)C2)n2nccc2n1` [Compound 28, (1S,3S)-N3-(5-ethylpyrazolo[1,5-a]pyrimidin-7-yl)cyclopentane-1,3-diamine], the figure is 1 to 500 nM.
With `CC(C)c1cc(NC2CCCCC2)n2nccc2n1` [Compound 29, N-cyclohexyl-5-isopropyl-pyrazolo[1,5-a]pyrimidin-7-amine], the IC50 fell in the range of 1 to 500 nM.
`CC(C)c1cc(N[C@@H]2CCOC2)n2nccc2n1` [Compound 30, 5-isopropyl-N-[(3R)-tetrahydrofuran-3-yl]pyrazolo[1,5-a]pyrimidin-7-amine]: the IC50 is above 1000 nM.
As for `CC(=O)Nc1cc(N[C@@H]2CC[C@@H](N)C2)n2ncc(Cl)c2n1` [Compound 33, [(1R,3R)-3-[(5-acetamido-3-chloro-pyrazolo[1,5-a]pyrimidin-7-yl)amino]cyclopentyl]ammonium; 2,2,2-trifluoroacetate], the IC50 was 1 to 500 nM.
On the same count and under the same terms, the figure for `CC(=O)Nc1cc(N[C@@H]2CC[C@@H](N)C2)n2nccc2n1` [Compound 34, [(1R,3R)-3-[(5-acetamidopyrazolo[1,5-a]pyrimidin-7-yl)amino]cyclopentyl]ammonium; 2,2,2-trifluoroacetate] is above 1000 nM.
